Read-outs that look alike come from different tables or passages of the source.
Legend:
[1] = system: NSCLC cell lines A549 and H1299; SCLC cell lines DMS114 and H128; assay: cell growth (SRB) and apoptosis (Annexin V/PI), lines with lower or undetectable Bcl2; assay type: cell-based; conditions: relatively lower or undetectable levels of endogenous Bcl2
Description: The effect of BDA-2 on cell growth and apoptosis was measured by SRB assay and Annexin V/PI binding, respectively, in both small cell lung cancer (SCLC) and non-small cell lung cancer (NSCLC) cell lines that express various levels of endogenous Bcl2.

Plasmid pUC19 DNA = assay: electrophoretic mobility shift assay (EMSA); assay type: binding
Description: To test whether BDA-2 reacts with DNA as a crosslinker, electrophoretic mobility shift assay (EMSA) was performed. Cisplatin, a known DNA binding agent, was used as positive control. Plasmid pUC19 DNA was incubated with BDA-2 or cisplatin.

[2] = system: Bcl2 ΔBH1 deletion mutant protein; assay: fluorescence polarization assay with fluorescent Bak peptide; assay type: binding
Description: (§1) Purified recombinant WT and a panel of Bcl2 BH domain deletion mutant proteins (i.e. ΔBH1, ΔBH2, ΔBH3 and ΔBH4) were commercially obtained from ProteinX Lab. To directly measure BDA-2/Bcl2 binding, a fluorescence polarization assay with a fluorescent Bak peptide (5′-[…]) was performed.

[3] = system: Bcl2 ΔBH2 deletion mutant protein; assay: as above; assay type: binding
Description: as §1

[4] = system: Bcl2 ΔBH3 deletion mutant protein; assay: as above; assay type: binding
Description: as §1

[5] = system: BH4 domain deficient Bcl2 mutant protein (ΔBH4); assay: as above; assay type: binding
Description: as §1

Bcl2 = Bcl2 (Homo sapiens, UniProt P10415); assay: as above; assay type: binding
Description: as §1

SCLC cell lines = assay: growth of SCLC cell lines; assay type: cell-based
[6] = system: H1299 cells overexpressing WT or Bcl2 single site mutants; assay: cell survival of H1299 cells overexpressing exogenous WT or single site Bcl2 mutants; assay type: cell-based
Source text: (§2) A panel of Bcl2 mutants were generated within the BH4 domain at the specific residues that were identified by the initial docking simulations, including D10A, N11A, R12A, E13A, M16A, K17A, H20A and D31A Bcl2 mutants. A compound Bcl2 mutant D10A/N11A/R12A/E13A (AAAA) was created. Recombinant proteins of these mutants were generated for BDA-2/Bcl2 binding analysis using a competitive fluorescence polarization. […] Second, WT and all Bcl2 mutants were exogenously overexpressed in H1299 cells that express undetectable levels of endogenous Bcl2.

[7] = system: Bcl2 and Bax in H460 xenograft tumor tissues; assay: QD-IHF of Bcl2 and Bax conformational change in tumor tissues; assay type: in vivo, mice; conditions: 14 days
Source text: Quantum dot-based immunohistofluorescence (QD-IHF) technology has recently been developed as a valuable tool for simultaneous and concurrent immunostaining of multiple biomarkers in formalin-fixed paraffin-embedded (FFPE) tissues, thereby allowing for quantification of several biomarkers simultaneously on the same tissue slide. To determine whether BDA-366 induces Bcl2 conformation change by exposure of its BH3 domain in tumor tissues and whether the BH3 domain-exposed Bcl2 activates Bax, conformational changes in both Bcl2 and Bax were simultaneously analyzed by QD-IHF on the same tissue slide.

H460 cells [8] = assay: autophagy (LC3-II, GFP-LC3); assay type: cell-based
Description: Bcl2 directly interacts with Beclin-1 and suppresses Beclin-1-dependent autophagy. Inhibition of Bcl2 by ABT-737 not only induces apoptosis but also autophagy. […] To test whether disruption of Bcl2 BH4 by BDA-2 stimulates autophagy, H460 cells were treated with BDA-366 (1 μM) for 24 h. […] To further quantify the level of autophagy, a GFP-LC3 construct was used to indicate autophagosomes.

[9] = system: human lung cancer cell lines; assay: sensitivity of lung cancer cell lines versus ABT-737; assay type: cell-based
[10] = target: T1, Bcl2 mutant D10A/N11A/R12A/E13A (AAAA) (Homo sapiens, UniProt P10415, D10A/E13A/N11A/R12A); assay: competitive fluorescence polarization, compound BH4 mutant; assay type: binding
T1 construct: made in house
Source text: as §2

H460 cells [11] = assay: co-IP of Bcl2 with Bax and Bim; assay type: cell-based
Description: To test whether BDA-366-induced Bcl2 conformational change increases interaction between Bcl2 and Bax in cells, co-IP experiments were performed following treatment of H460 cells with BDA-366.

[12] = system: normal small airway epithelial cell line (SAEC); assay: cell growth (SRB) and apoptosis (Annexin V/PI), normal cells; assay type: cell-based
[13] = Description: In order to define the appropriate doses for in vivo experimentation, the maximum tolerated dose (MTD) was determined. Nu/Nu nude mice were treated in groups of 6 per dose level with increasing doses of BDA-366 (10-50 mg/kg/d) intraperitoneally (i.p.) for up to 12 days. […] Standard single-dose MTD treatment in normal C57BL/6 mice were measured. […] 10% of single dose MTD can usually be considered as the maximum therapeutic dose (30˜40 mg/kg) for continuous treatment.
[14] = system: H460, H157, DMS53, DMS153 and H146 cells expressing Bcl2 shRNA; assay: apoptotic cell death (Annexin-V/PI, FACS) after Bcl2 shRNA knock-down; assay type: cell-based; conditions: 1 μM, 72 h
Description: To determine whether Bcl-2 is the relevant target at the cellular level and whether cell killing is truly dependent on this particular mechanism, Bcl2 was specifically knocked down using three different Bcl2 shRNAs that target different regions in Bcl2 gene in five lung cancer cell lines, including two NSCLC cell lines (H460 and H157) and three SCLC cell lines (DMS53, DMS153 and H146). […] Cells expressing Bcl2 shRNA1, shRNA2, shRNA3 or control shRNA were treated with BDA-2 (1 μM) for 72 h. The level of apoptotic cell death was determined by analysis of Annexin-V/PI binding by FACS.

H460 cells [15] = assay: IP3R/Bcl2 interaction and Ca2+ release; assay type: cell-based; conditions: increasing concentrations, 24 h
Description: To further determine whether Bax is important for BDA-2 induction of apoptosis, the apoptotic effect of BDA-366 was tested on wild type (WT) and Bax knockout (Bax−/−) MEF cells. […] To test whether BDA-2/BH4 binding affects the IP3R/Bcl2 interaction and Ca2+ release, H460 cells were treated with increasing concentrations of BDA-366 for 24 h.

Sequence of Bcl2 (P10415 whole entry): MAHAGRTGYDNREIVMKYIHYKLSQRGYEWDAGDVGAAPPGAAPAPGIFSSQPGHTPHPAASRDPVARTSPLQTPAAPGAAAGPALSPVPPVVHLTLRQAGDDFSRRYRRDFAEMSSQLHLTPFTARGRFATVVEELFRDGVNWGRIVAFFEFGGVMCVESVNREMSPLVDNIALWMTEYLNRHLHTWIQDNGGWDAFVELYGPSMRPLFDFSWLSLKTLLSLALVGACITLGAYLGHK
T1 sequence (P10415 whole entry D10A/N11A/R12A/E13A): as the sequence (P10415 whole entry) above, with D10A, N11A, R12A, E13A counted along it

Q: With `CCN(CC)CC(O)CNc1ccc(NCC2CO2)c2c1C(=O)c1ccccc1C2=O` (centres unmarked) [BDA-366, 1-((3-(diethylamino)-2-hydroxypropyl)amino)-4-((oxiran-2-ylmethyl)amino)anthracene-9,10-dione] as the compound, how does the sensitivity of cells [1] read?
A: less sensitive

Q: And the “binding to pUC19 DNA causing mobility shift” value (Plasmid pUC19 DNA)?
A: not

Q: And the “binding after deletion of BH1” value [2]?
A: did not significantly affect its BDA-2 binding

Q: What about the “binding after deletion of BH2” value [3] of the same compound?
A: did not significantly affect its BDA-2 binding

Q: What about the “binding after deletion of BH3” value [4] of the same compound?
A: did not significantly affect its BDA-2 binding

Q: And the “binding to ΔBH4 Bcl2” value [5]?
A: failed to bind

Q: And the Ki (Bcl2; fluorescent Bak peptide, WT Bcl2)?
A: 3.3 ± 0.73 nM

Q: And the “inhibitory constant (Ki) value” (Bcl2; purified Bcl2 protein, BH4 domain)?
A: nanomolar level

Q: What about the “growth of SCLC cell lines” value (SCLC cell lines) of the same compound?
A: efficiently suppressed growth of SCLC cell lines

Q: And the “sensitivity of cells overexpressing WT or single site Bcl2 mutants” value [6]?
A: enhanced sensitivity

Q: What about the “6A7 binding to Bax (active form of Bax) in tumor tissues” value [7] of the same compound?
A: increased level of 6A7 binding to Bax

Q: And the “exposure of the Bcl2 BH3 domain in tumor tissues” value [7]?
A: dose-dependent exposure of the Bcl2 BH3 domain in tumor tissues

Q: What about the “total Bcl2 and Bax levels in tumor tissues” value [7] of the same compound?
A: no significant changes in total Bcl2 and Bax levels

Q: What about the “levels of LC3-II” value (H460 cells [8]; 1 μM, 24 h) of the same compound?
A: Increased levels of LC3-II

Q: And the “percentage of GFP-LC3vac cells” value (H460 cells [8]; compared to DMSO control)?
A: significantly increases

Q: And the “sensitivity of most human lung cancer cell lines relative to ABT-737” value [9]?
A: more sensitive to BDA2 than ABT-737

Q: And the “binding to AAAA Bcl2 mutant protein” value [10]?
A: remarkably decreased BDA-2 binding

Q: What about the Bcl2/Bax interaction (H460 cells [11]) of the same compound?
A: enhanced Bcl2/Bax interaction

Q: What about the Bcl2/Bim binding (H460 cells [11]) of the same compound?
A: decreased Bcl2/Bim binding

Q: And the “sensitivity of normal cells” value [12]?
A: less sensitive

Q: What about the “time within which dose was uniformly lethal” value ([13]; 40 mg/kg/d i.p.) of the same compound?
A: ≤ 8 days

Q: What about the “time within which dose was uniformly lethal” value ([13]; 50 mg/kg/d i.p.) of the same compound?
A: up to 12 days

Q: And the tolerability ([13]; 10 to 30 mg/kg/d i.p., up to 12 days)?
A: tolerable with no death recorded

Q: And the “sensitivity (apoptotic cell death) after depletion of endogenous Bcl2” value [14]?
A: significantly reduced sensitivity

Q: What about the Bcl2/IP3R binding (H460 cells [15]) of the same compound?
A: reduced Bcl2/IP3R binding

Q: What about the “Ca2+ release” value (H460 cells [15]) of the same compound?
A: increased Ca2+ release

Reference: patent US9980936B2, “BH4 antagonists and methods related thereto” (Emory University, priority 2014, dated 2018)
